Laboratory results from patent US7595398B2, “N-(5-membered aromatic ring)-amido anti-viral compounds” (SmithKline Beecham Corporation, priority 2005, dated 2009).

Tested on: HCV replicon I389luc-ubi-neo/NS3-3′/ET in ET (Huh-lucubineo-ET) cells; screening for HCV RNA dependent RNA polymerase
Assay: Replicon Assay (luciferase, ET cell line Huh-lucubineo-ET)
Assay type: cell-based
Details: Hepatitis C virus; inhibition of replication relative to no compound control; test concentration of 10 μM according to the fitted equation; luciferase 48-72 hours
Protocol: A cell line, ET (Huh-lucubineo-ET) was used for screening of compounds of the present invention for HCV RNA dependent RNA polymerase. The ET cell line was stably transfected with RNA transcripts harboring a I389luc-ubi-neo/NS3-3′/ET; replicon with firefly luciferase-ubiquitin-neomycin phosphotransferase fusion protein and EMCV-IRES driven NS3-5B polyprotein containing the cell culture adaptive mutations (E1202G; T12801; K1846T) (Krieger at al, 2001 and unpublished). The ET cells were grown in DMEM, supplemented with 10% fetal calf serum, 2 mM Glutamine, Penicillin (100 IU/mL)/Streptomycin (100 μg/mL), 1× nonessential amino acids, and 250 μg/mL G418 (“Geneticin”). They were all available through Life Technologies (Bethesda, Md.). The cells were plated at 0.5-1.0×10^4 cells/well in the 96 well plates and incubated for 24 hrs before adding nucleoside analogs. […] Luciferase activity were measured 48-72 hours later by adding a lysis buffer and the substrate (Catalog number Glo-lysis buffer E2661 and Bright-Glo luciferase system E2620 Promega, Madison, Wis.). Cells should not be too confluent during the assay. Percent inhibition of replication was plotted relative to no compound control. Under the same condition, cytotoxicity of the compounds was determined using cell proliferation reagent, WST-1(Roche, Germany). The compounds showing antiviral activities, but no significant cytotoxicities were chosen to determine IC50 and TC50. For these determinations, 10 concentrations of each compound were used. Concentrations for test compounds typically span a range of 500 fold. IC50 and TC50 values were calculated by fitting % inhibition at each concentration (I) to the following equation: % inhibition=100%/[1+10^(log IC50−log (I))*b] where b is Hill's coefficient.

Row | SMILES | inhibition at 10 µM [%]
1 | O=C(NC1CC1)c1ccc(-c2csc(NC(=O)[C@@H]3CCCN3C(=O)c3ccncc3)n2)cc1 [Compound 5321, 1-(Pyridine-4-carbonyl)-pyrrolidine-2-carboxylic acid [4-(4-cyclopropylcarbamoyl-phenyl)-thiazol-2-yl]-amide] | 91.3
2 | COc1ccc2cc(-c3csc(NC(=O)[C@@H]4CCCN4C(=O)OCc4ccccc4)n3)c(=O)oc2c1 [Compound 5043, 2-[4-(7-Methoxy-2-oxo-2H-chromen-3-yl)-thiazol-2-ylcarbamoyl]-pyrrolidine-1-carboxylic acid benzyl ester] | 3.61
3 | O=C(Nc1nc(-c2c(F)cccc2F)cs1)[C@@H]1CCCN1C(=O)OCc1ccccc1 [Compound 5059, 2-[4-(2,6-Difluoro-phenyl)-thiazol-2-ylcarbamoyl]-pyrrolidine-1-carboxylic acid benzyl ester] | 88
4 | O=C(Nc1nc(-c2ccc3ccccc3c2)cs1)[C@@H]1CCCN1C(=O)OCc1ccccc1 [Compound 5060, 2-(4-Naphthalen-2-yl-thiazol-2-ylcarbamoyl)-pyrrolidine-1-carboxylic acid benzyl ester] | 98.4
5 | Cc1ccc(Cc2cnc(NC(=O)[C@@H]3CCCN3C(=O)OCc3ccccc3)s2)cc1 [Compound 5040, 2-[5-(4-Methyl-benzyl)-thiazol-2-ylcarbamoyl]-pyrrolidine-1-carboxylic acid benzyl ester] | 22.5
6 | O=C(Nc1ncc(Cc2ccccc2Cl)s1)[C@@H]1CCCN1C(=O)OCc1ccccc1 [Compound 5052, 2-[5-(2-Chloro-benzyl)-thiazol-2-ylcarbamoyl]-pyrrolidine-1-carboxylic acid benzyl ester] | 1.2
7 | Nc1cccc(-c2csc(NC(=O)C3CCCN3C(=O)OCc3ccccc3)n2)c1 (stereo not drawn) [Compound 5001, 2-[4-(3-Amino-phenyl)-thiazol-2-ylcarbamoyl]-pyrrolidine-1-carboxylic acid benzyl ester] | 99.6
8 | O=C(NC1CC1)c1ccc(-c2csc(NC(=O)[C@@H]3CCCN3C(=O)OCc3ccc(F)cc3)n2)cc1 [Compound 5361, 2-[4-(4-Cyclopropylcarbamoyl-phenyl)-thiazol-2-ylcarbamoyl]-pyrrolidine-1-carboxylic acid 4-fluoro-benzyl ester] | 98.4
9 | CCNC(=O)c1ccc(-c2csc(NC(=O)[C@@H]3CCCN3C(=O)OCc3ccccc3)n2)cc1 [Compound 5092, 2-[4-(4-Ethylcarbamoyl-phenyl)-thiazol-2-ylcarbamoyl]-pyrrolidine-1-carboxylic acid benzyl ester] | 100
10 | CC(=O)Nc1ccc(-c2csc(NC(=O)[C@@H]3CCCN3C(=O)OCc3ccccc3)n2)cc1 [Compound 5048, 2-[4-(4-Acetylamino-phenyl)-thiazol-2-ylcarbamoyl]-pyrrolidine-1-carboxylic acid benzyl ester] | 100
11 | O=C(Nc1ccc(-c2csc(NC(=O)[C@@H]3C[C@@H](O)CN3C(=O)OCc3ccccc3)n2)cc1)C1CC1 [Compound 5310, 2-{4-[4-(Cyclopropanecarbonyl-amino)-phenyl]-thiazol-2-ylcarbamoyl}-4-hydroxy-pyrrolidine-1-carboxylic acid benzyl ester] | 99.3
12 | O=C(Nc1nc(-c2cccnc2)cs1)[C@@H]1CCCN1C(=O)OCc1ccccc1 [Compound 5338, 2-(4-Pyridin-3-yl-thiazol-2-ylcarbamoyl)-pyrrolidine-1-carboxylic acid benzyl ester] | 75.2
13 | O=C(NC1CC1)c1ccc(-c2csc(NC(=O)[C@@H]3[C@@H](O)CCN3C(=O)OCc3ccccc3)n2)cc1 [Compound 5376, 2-[4-(4-Cyclopropylcarbamoyl-phenyl)-thiazol-2-ylcarbamoyl]-3-hydroxy-pyrrolidine-1-carboxylic acid benzyl ester] | 96
14 | O=C(NC1CCCC1)c1ccc(-c2csc(NC(=O)[C@@H]3CCCN3C(=O)OCc3ccccc3)n2)cc1 [Compound 5100, 2-[4-(4-Cyclopentylcarbamoyl-phenyl)-thiazol-2-ylcarbamoyl]-pyrrolidine-1-carboxylic acid benzyl ester] | 99.1
15 | O=C(Nc1ccc(-c2csc(NC(=O)[C@@H]3CCCN3C(=O)OCc3ccccc3)n2)cc1)c1ccc(Cl)cc1 [Compound 5036, 2-{4-[4-(4-Chloro-benzoylamino)-phenyl]-thiazol-2-ylcarbamoyl}-pyrrolidine-1-carboxylic acid benzyl ester] | 100
16 | O=C(NCCCN1CCOCC1)c1ccc(-c2csc(NC(=O)[C@@H]3CCCN3C(=O)OCc3ccccc3)n2)cc1 [Compound 5324, 2-{4-[4-(3-Morpholin-4-yl-propylcarbamoyl)-phenyl]-thiazol-2-ylcarbamoyl}-pyrrolidine-1-carboxylic acid benzyl ester] | 100
17 | O=C(Nc1nc(-c2ccc(C3CCCCC3)cc2)cs1)[C@@H]1CCCN1C(=O)OCc1ccccc1 [Compound 5024, 2-[4-(4-Cyclohexyl-phenyl)-thiazol-2-ylcarbamoyl]-pyrrolidine-1-carboxylic acid benzyl ester] | 11
18 | Nc1cccc(-c2cnc(NC(=O)[C@@H]3CCCN3C(=O)OCc3ccccc3)s2)c1 [Compound 5114, 2-[5-(3-Amino-phenyl)-thiazol-2-ylcarbamoyl]-pyrrolidine-1-carboxylic acid benzyl ester] | 25
19 | O=C(Nc1nc(-c2ccc(C(=O)N3CCOCC3)cc2)cs1)C1CCCN1C(=O)OCc1ccccc1 (stereo not drawn) [Compound 5364, 2-{4-[4-(Morpholine-4-carbonyl)-phenyl]-thiazol-2-ylcarbamoyl}-pyrrolidine-1-carboxylic acid benzyl ester] | 4.49
20 | O=C(Nc1nc(CCc2ccccc2)cs1)[C@@H]1CCCN1C(=O)OCc1ccccc1 [Compound 5003, 2-(4-Phenethyl-thiazol-2-ylcarbamoyl)-pyrrolidine-1-carboxylic acid benzyl ester] | 99.9
21 | O=C(Nc1nc(-c2ccco2)cs1)[C@@H]1CCCN1C(=O)OCc1ccccc1 [Compound 5347, 2-(4-Furan-2-yl-thiazol-2-ylcarbamoyl)-pyrrolidine-1-carboxylic acid benzyl ester] | 94.7
22 | O=C(NC1CC1)c1ccc(-c2csc(NC(=O)[C@@H]3CCCN3C(=O)OCc3ccccc3)n2)o1 [Compound 5351, 2-[4-(5-Cyclopropylcarbamoyl-furan-2-yl)-thiazol-2-ylcarbamoyl]-pyrrolidine-1-carboxylic acid benzyl ester] | 22.3
23 | O=C(Nc1ncc(Cc2ccc(Cl)cc2)s1)[C@@H]1CCCN1C(=O)OCc1ccccc1 [Compound 5063, 2-[5-(4-Chloro-benzyl)-thiazol-2-ylcarbamoyl]-pyrrolidine-1-carboxylic acid benzyl ester] | 51.7
24 | COc1ccc(-c2csc(NC(=O)[C@@H]3CCCN3C(=O)OCc3ccccc3)n2)cc1Cl [Compound 5090, 2-[4-(3-Chloro-4-methoxy-phenyl)-thiazol-2-ylcarbamoyl]-pyrrolidine-1-carboxylic acid benzyl ester] | 99.8
25 | O=C(NC1CC1)c1ccc(-c2csc(NC(=O)C3CCCC3C(=O)NCc3ccccc3)n2)cc1 (racemic) [Compound 5382, Cyclopentane-1,2-dicarboxylic acid 1-benzylamide 2-{[4-(4-cyclopropylcarbamoyl-phenyl)-thiazol-2-yl]-amide}] | 100
26 | O=C(Nc1nc(-c2ccc(NCC3CC3)cc2)cs1)[C@@H]1CCCN1C(=O)OCc1ccccc1 [Compound 5330, 2-{4-[4-(Cyclopropylmethyl-amino)-phenyl]-thiazol-2-ylcarbamoyl}-pyrrolidine-1-carboxylic acid benzyl ester] | 98.8
27 | O=C(NCCCO)c1ccc(-c2csc(NC(=O)[C@@H]3CCCN3C(=O)OCc3ccccc3)n2)cc1 [Compound 5317, 2-{4-[4-(3-Hydroxy-propylcarbamoyl)-phenyl]-thiazol-2-ylcarbamoyl}-pyrrolidine-1-carboxylic acid benzyl ester] | 100
28 | O=C(Nc1nc(-c2ccc(F)cc2F)cs1)[C@@H]1CCCN1C(=O)OCc1ccccc1 [Compound 5023, 2-[4-(2,4-Difluoro-phenyl)-thiazol-2-ylcarbamoyl]-pyrrolidine-1-carboxylic acid benzyl ester] | 76.5
29 | CC(C)(C)c1csc(NC(=O)[C@@H]2CCCN2C(=O)OCc2ccccc2)n1 [Compound 5360, 2-(4-tert-Butyl-thiazol-2-ylcarbamoyl)-pyrrolidine-1-carboxylic acid benzyl ester] | 54
30 | O=C(Nc1cccc(-c2cnc(NC(=O)[C@@H]3CCCN3C(=O)OCc3ccccc3)s2)c1)C1CCCC1 [Compound 5116, 2-{5-[3-(Cyclopentanecarbonyl-amino)-phenyl]-thiazol-2-ylcarbamoyl}-pyrrolidine-1-carboxylic acid benzyl ester] | 100
